According to patent publication US5506102A (priority 1993, dated 1996):

Molecular target: T1, PR-B (Homo sapiens, UniProt P06401)
T1 sequence (P06401 1-933): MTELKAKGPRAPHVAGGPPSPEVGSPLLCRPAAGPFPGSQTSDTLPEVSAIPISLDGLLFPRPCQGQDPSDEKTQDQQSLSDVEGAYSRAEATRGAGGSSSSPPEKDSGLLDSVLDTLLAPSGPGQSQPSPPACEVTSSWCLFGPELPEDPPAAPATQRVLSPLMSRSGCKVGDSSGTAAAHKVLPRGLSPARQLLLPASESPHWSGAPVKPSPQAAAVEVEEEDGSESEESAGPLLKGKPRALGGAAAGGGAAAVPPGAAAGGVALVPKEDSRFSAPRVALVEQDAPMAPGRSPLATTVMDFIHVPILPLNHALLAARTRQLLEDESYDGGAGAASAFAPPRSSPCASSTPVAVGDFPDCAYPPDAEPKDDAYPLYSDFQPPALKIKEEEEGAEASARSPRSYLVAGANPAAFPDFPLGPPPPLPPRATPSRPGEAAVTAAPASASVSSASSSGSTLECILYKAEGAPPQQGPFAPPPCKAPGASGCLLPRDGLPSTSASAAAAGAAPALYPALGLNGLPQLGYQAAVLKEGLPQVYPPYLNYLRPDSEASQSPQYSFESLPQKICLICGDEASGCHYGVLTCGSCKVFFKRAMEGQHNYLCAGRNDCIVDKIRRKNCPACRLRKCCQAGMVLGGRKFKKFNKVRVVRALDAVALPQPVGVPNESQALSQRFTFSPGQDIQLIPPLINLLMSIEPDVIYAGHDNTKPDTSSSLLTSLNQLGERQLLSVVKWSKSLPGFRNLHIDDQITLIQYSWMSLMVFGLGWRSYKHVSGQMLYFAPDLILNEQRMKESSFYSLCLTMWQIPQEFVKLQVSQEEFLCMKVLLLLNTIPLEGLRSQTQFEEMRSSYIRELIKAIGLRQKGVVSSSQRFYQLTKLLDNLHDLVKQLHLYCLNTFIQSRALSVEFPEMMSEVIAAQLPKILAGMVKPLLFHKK
Assay: PR-B regulation of TAT promoter
Type: cell-based
Parameters: expressed in transfected cells; host or cells: CV-1, HepG2 (PRE2 tk-LUC); HeLa, also HepG2 and CV-1 (TAT promoter)
Details: data not shown
Method: FIGS. 4A-4B are a series of graphs showing CV-1 ([…]) or HepG2 (FIG. 4B) cells that were transiently transfected with either […] of phPR-B or phPR-A alone, or phPR-B in the presence of increasing concentrations of phPR-A, together with 5 µg/ml of the PRE2 tk-LUC reporter and 5 µg/ml of pCH110 as an internal control. HeLa cells (FIG. 4C) were transfected with either phPR-B or phPR-A together with 5 µg/ml of the pTAT2950 reporter and 5 µg/ml of pCH110 as an internal control. […] The relative luciferase activity is calculated by dividing the normalized luciferase value at a given point by that obtained in the absence of transfected receptor or ligand. The data shown represent the mean +/- average deviation from the mean of triplicate estimations;
The 2.9 Kb fragment resulting from the digestion of the pTAT-CAT plasmid, and the 6.7 Kb fragment, containing the luciferase gene and the backbone resulting from MMTV-LUC digestion products, were ligated to create the plasmid TAT2950-LUC.
Cells were seeded in 12-well, 96-well or 10 cm tissue culture plates. […] 20 μg of DNA/ml of transfection buffer were used in each transfection reaction. […]

CC(=O)[C@H]1CC[C@H]2[C@@H]3CCC4=CC(=O)CC[C@]4(C)[C@H]3CC[C@]12C [progesterone]
TAT promoter response (CV-1, PR-B): unresponsive to either receptor subtype | TAT promoter response to progesterone (HepG2, phPR-B): responded to progesterone
